How the values were obtained:
Test in all cases: relative viability (nuclei count vs DMSO), 5 days (fraction); higher = more cells survive
[1] = compound: CC(C)N(CCCNC(=O)Nc1ccc(C(C)(C)C)cc1)C[C@H]1O[C@@H](n2ccc3c(N)ncnc32)[C@H](O)[C@@H]1O + C[C@]1(O)C[C@@H](c2nc(-c3ccc4ccc(-c5ccccc5)nc4c3)c3c(N)nccn32)C1 [Linsitinib] (partner 1 µM)
Procedure, shortened: (§1)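 A single step with final 0.05% Triton X-100, 1% formaldehyde and 1 ug/ml Hoechst fixed the cells and stained nuclei 5 days after treatment. Lung cancer cell lines in 1536-well plates had been treated by pin tool the day after seeding with one drug alone or a fixed anchor-drug dose plus five library-drug doses (not always all listed) in √10 steps, and nuclei were counted on 4× images. Relative viability is the ratio of nuclei in treated wells to nuclei in vehicle wells, taken as the median of duplicate plates.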

Shikonin + Vorinostat = compound: CC(C)=CC[C@@H](O)C1=CC(=O)c2c(O)ccc(O)c2C1=O [Shikonin] + O=C(CCCCCCC(=O)Nc1ccccc1)NO [Vorinostat] (partner 1 µM)
Procedure, shortened: as §1

[2] = compound: CC(C)N(CCCNC(=O)Nc1ccc(C(C)(C)C)cc1)C[C@H]1O[C@@H](n2ccc3c(N)ncnc32)[C@H](O)[C@@H]1O + CC1(C)CCC(c2ccc(Cl)cc2)=C(CN2CCN(c3ccc(C(=O)NS(=O)(=O)c4ccc(N[C@H](CCN5CCOCC5)CSc5ccccc5)c(S(=O)(=O)C(F)(F)F)c4)cc3)CC2)C1 [Navitoclax] (partner 0.5 µM)
Procedure, shortened: as §1

Shikonin + OSI-027 = compound: CC(C)=CC[C@@H](O)C1=CC(=O)c2c(O)ccc(O)c2C1=O [Shikonin] + COc1cccc2cc(-c3nc([C@H]4CC[C@H](C(=O)O)CC4)n4ncnc(N)c34)[nH]c12 [OSI-027] (partner 0.5 µM)
Procedure, shortened: as §1

With SW 1573 the relative viability ([1]; first compound 0.08 µM) was 0.603, the relative viability ([1]; first compound 0.253 µM) was 0.872 and the relative viability ([1]; first compound 0.8 µM) was 0.848. It also gave a relative viability ([1]; first compound 2.53 µM) of 0.976, a relative viability ([1]; first compound 8 µM) of 0.825 and a relative viability (Shikonin + Vorinostat; first compound 0.01 µM) of 0.739. It also gave a relative viability (Shikonin + Vorinostat; first compound 0.1 µM) of 0.94, a relative viability (Shikonin + Vorinostat; first compound 0.3162 µM) of 0.536 and a relative viability (Shikonin + Vorinostat; first compound 1 µM) of 0.306. The relative viability ([2]; first compound 0.08 µM) was 1.04, the relative viability ([2]; first compound 0.253 µM) was 1.06 and the relative viability ([2]; first compound 0.8 µM) was 1.09. It also gave a relative viability ([2]; first compound 2.53 µM) of 1.15, a relative viability ([2]; first compound 8 µM) of 1.09 and a relative viability (Shikonin + OSI-027; first compound 0.01 µM) of 0.564. For the same cell line, the relative viability (Shikonin + OSI-027; first compound 0.1 µM) was 0.518, the relative viability (Shikonin + OSI-027; first compound 0.3162 µM) was 0.443 and the relative viability (Shikonin + OSI-027; first compound 1 µM) was 0.258.
